Test results as given in patent US11129867B2, “Method of treating cancer cells” (priority 2017, dated 2021).
Where a SMILES comes first, the peptide text is derived from it. The star is where a group is joined. X1 = CN(C)c1ccc2c(-c3ccc(C(=O)*)cc3C(=O)[O-])c3ccc(=[N+](C)C)cc-3oc2c1

How the values were obtained:
[1] = system: intracellular ROS in Ca922 cells; assay: DCFDA cellular ROS detection assay; format: cell-based, human
Procedure: Ca922 cells were seeded in dark, clear bottom 96-well microplate with 25,000 cells per well. Cells were then labeled with 25 μM DCFDA for 45 minutes and 25 μM TMR-GBP for 6 hours. 1% H2O2 (1 hour) and 55 mM TBHP (4 hours) treatments were positive control, mimic ROS activity to oxidize DCFDA to fluorescent DCF. Cells were then analyzed on a fluorescent plate reader. Standard deviations of three independent experiments were indicated as bars.
DCFDA Cellular ROS Detection Assay
Seeded cells at 2.5×10^4 cells/well on a dark, clear bottom 96-well microplate and incubated in complete media with 10% FBS without phenol red. Prepared 1× Buffer by diluting 10× buffer in ddH2O and a working DCFDA solution (25 μM) by adding the appropriate volume of 20 mM DCFDA to 1× Buffer. Washed cells once in 1× Buffer and stained cells with 25 μM DCFDA for 45 minutes at 37° C. Then, washed cells once in 1× Buffer or 1×PBS. TMR-GBP, H2O2 and TBHP could be diluted in complete media with 10% FBS without phenol red. Added 100 μL/well of TMR-GBP, H2O2 (as positive control), TBHP (as positive control) and incubated for desired time period. Cells should not be washed after treatment with the TBHP or other compounds of interest. It should contain non-stained cells to determine background fluorescence. Read signal at Ex/Em: 485/535 nm by fluorescent plate reader

OSC20 = assay: Time-lapse live cell imaging, OSC20; format: cell-based, human; details: OSC20, unbound TMR-GBP removed, imaged at 15 minutes interval for 16 hours, FIG. 4
Procedure: Time-Lapse Live Cell Imaging
In order to monitor cell morphology and the stability of TMR-GBP, cells were incubated in 35 mm dish or 4 well dish at 37° C. overnight. Replaced the culture medium with CO2-independent medium with supplement of 10% fetal bovine serum (FBS) and 1% penicillin-streptomycin, cells were treated with reagent (TMR, GBP, TMR-GBP) for the time according to the experiment and subjected to time-lapse live cell imaging. Cells were maintained on the microscope stage incubator at 37° C. Multiple-positional time-lapse imaging was performed using an automated Leica DMI6000 inverted microscope equipped with an HCX PL FL 20λ/NA0.4 objective and Andor Luca R EMCCD camera. Images of cells were taken at different interval time and analyzed by MetaMorph software.

phospho-γH2Ax = assay: Immunofluorescence staining of phospho-γH2Ax (DNA damage); format: cell-based, human
Procedure: Representative images showing DAPI-labelled nucleus (shown in blue) co-stained with phospho-γH2Ax (green). Ca922 cells were treated with 25 μM TMR-GBP for 12 or 24 hours followed by immunofluorescence staining. Foci in the nucleus indicated damaged DNA. Scale bar indicates 10 μm.
At least 20 cells were counted in each category. Bars indicate standard deviations from three independent experiments.
Immunofluorescence Staining
Cells grown on coverslips were washed with 1×PBS and fixed by PTEMF buffer (20 mM PIPES pH 6.8, 0.2% Triton X-100, 10 mM EGTA, 1 mM MgCl2, and 4% formaldehyde) or 4% paraformaldehyde for 10 minutes at room temperature. Then, fixation buffer was replaced with 1×PBST and the cells were washed with 1×PBST for another 10 minutes at room temperature. Coverslips were washed with 1×PBST twice gently and incubated with primary antibodies at room temperature for 1 hour. Next, washed with PBST for three times (2, 2, 5 minutes). Afterwards, coverslips were cultured in Alex Fluor-conjugated secondary antibodies and DAPI at room temperature for 30 minutes, washed three times (2, 2, 5 minutes), rinsed with ddH2O and mounted with mounting medium. Antibodies concentration used in this analysis is 1:1000 dilution. Images were acquired with specific fluorescence wavelength by Leica DMI6000 inverted microscope equipped with HCX PL FL 100λ/NA1.40 objective and EMCCD camera. All images were analyzed by MetaMorph software.

Detroit 562 = assay: WST-8 cell viability assay, Detroit 562; format: cell-based; details: Detroit 562 (pharynx cancer), different concentrations, 48 hours, FIG. 5
Procedure: (§1) Human oral squamous cell carcinoma (OSCC) cell lines, Ca922, OSC20, OECM-1, OC3, CGHNC9, HSC3, plus A549, MDA-MB-231, MCF7, Huh7, HeLa-Kyoto, Detroit 562, H520, H2170, and 293T cells were used in this study. Ca922, CGHNC9, MDA-MB-231, MCF7, Huh7, HeLa-Kyoto, Detroit 562, and 293T cells were all cultured in high-glucose Dulbecco's Modified Eagle Medium (DMEM). OSC20 and HSC3 cells were cultured in Dulbecco's Modified of Eagle's Medium/Ham's F-12 50/50 Mix (1:1). OECM-1, A549, H520, and H2170 cells were grown in RPMI-1640 medium. All culture media were supplemented with 10% fetal bovine serum (FBS) and 1% penicillin-streptomycin. OC3 cells were cultured in 1:1 DMEM/KSFM (keratinocyte serum-free medium) with supplied supplement of Bovine pituitary extract (BPE) and epidermal growth factor (EGF) followed by instruction. All the cells in this study were maintained at 37° C. in humidified atmosphere containing 5% CO2.
(§2) WST-8 [2-(2-methoxy-4-nitrophenyl)-3-(4-nitrophenyl)-5-(2,4-disulfophenyl)-2H-tetrazolium, monosodium salt] cell viability assay
Cells were seeded into 96 well plate and incubated at 37° C. overnight. Endpoint measures of TMR-GBP or drugs were performed by water soluble tetrazolium salt (WST-8)-based colorimetric assay in triplicate which measures the metabolic conversion of WST-8 into formazan by mitochondrial dehydrogenases present in viable cells. The amount of formazan produced is proportional to the number of live cells and is expressed as cellular viability. When time was up, media were removed and supplemented with WST-8 cell viability reagent-contained cell culture medium (1:10) and incubated at 37° C. for 2 hours. Besides, three wells with WST-8-dissolved medium only (without cells) were reserved as a background control. Cell viability was measured at the absorbance of 450/655 nm wavelength by ELISA reader.

A549 = assay: WST-8 cell viability assay, A549; format: cell-based; details: A549 (lung cancer), different concentrations, 48 hours, FIG. 3
Procedure: as §1, §2
(§3) Cells were seeded into 96 well plate and incubated at 37° C. overnight. […] The amount of formazan produced is proportional to the number of live cells and is expressed as cellular viability. […] Cell viability was measured at the absorbance of 450/655 nm wavelength by ELISA reader.

293T = assay: WST-8 cell viability assay, 293T; format: cell-based; details: 293T (embryonic kidney), different concentrations, 48 hours, FIG. 3
Procedure: as §1, §2, §3

HeLa-Kyoto = assay: WST-8 cell viability assay, HeLa-Kyoto; format: cell-based; details: HeLa-Kyoto (cervical cancer), different concentrations, 48 hours, FIG. 3
Procedure: as §1, §2, §3

For `CN(C)c1ccc2c(-c3ccc(C(=O)N[C@@H](CC(N)=O)C(=O)N[C@@H](Cc4ccc(O)cc4)C(=O)N[C@@H](CCCNC(=N)N)C(=O)N[C@@H](Cc4c[nH]c5ccccc45)C(=O)N[C@@H](CCCNC(=N)N)C(=O)N[C@@H](CS)C(=O)N[C@@H](CCCCN)C(=O)N[C@@H](CC(N)=O)C(=O)N[C@@H](CCC(N)=O)C(=O)N[C@@H](CC(N)=O)C(=O)O)cc3C(=O)[O-])c3ccc(=[N+](C)C)cc-3oc2c1` [TMR-GBP] (X1-NYRWRCKNQN-OH; N-terminus and C-terminus assumed), the “increase of ROS compared with control cells” value ([1]; Ca922, 25 μM, 6 hours, DCFDA, after background subtraction, FIG. 9) was 5 folds, the “ROS production with NAC treatment” value ([1]; NAC treatment in the presence of TMR-GBP) was “reversed by NAC treatment” and the “cell death by time-lapse microscopy” value (OSC20) was “most cells die in 8 hours”. The “phospho-γH2Ax foci in the nucleus (DNA damage)” value (phospho-γH2Ax; Ca922, 25 μM TMR-GBP, 12 or 24 hours, FIG. 10A) was “many foci were observed accumulating in the nucleus”, the “increase of nuclear γH2Ax intensity” value (phospho-γH2Ax; Ca922, 25 μM, over control cells or cells co-treated with TMR-GBP and NAC, FIG. 10B) was 4 folds and the “phospho-γH2Ax signal, co-treated with NAC” value (phospho-γH2Ax; Ca922, co-treated with TMR-GBP and NAC, FIG. 10A) was “hardly detected any phospho-γH2Ax signal”. The “cytotoxicity (cell viability)” value (Detroit 562) was “could induce cytotoxicity”, the cell viability (A549) was “not markedly affected” and the cell viability (293T) was “not markedly affected”. For the same molecule, the cell viability (HeLa-Kyoto) was “not markedly affected”.
